Measurements: patent US20090143279A1 (priority 2007, published 2009)
Like-named read-outs stand apart in the source and are kept apart here.

Legend:
[1] = system: cellular dehydrogenase activity; settings: for MTT (composite Z-score): normalized score vs mock-treated (DMSO) wells
[2] = system: cytochrome c; format: cell-based, mouse; settings: for cyt c (composite Z-score): normalized score vs mock-treated (DMSO) wells
[3] = system: mtOXPHOS transcripts; format: cell-based, mouse; settings: for mitoOX (composite Z-score): normalized score vs mock-treated (DMSO) wells
[4] = system: nuOXPHOS transcripts; format: cell-based, mouse; settings: for nucOX (composite Z-score): normalized score vs mock-treated (DMSO) wells
[5] = system: reactive oxygen species; format: cell-based, mouse; settings: for ROS (composite Z-score): normalized score vs mock-treated (DMSO) wells
[6] = system: OXPHOS gene expression; format: cell-based, mouse; settings: for GE-HTS (composite Z-score): normalized score vs mock-treated (DMSO) wells
[7] = system: mitochondrial membrane potential; format: cell-based, mouse; settings: for ΔΨm (composite Z-score): normalized score vs mock-treated (DMSO) wells
[8] = system: C2C12 myotubes; settings: for Viability (composite Z-score): normalized score vs mock-treated (DMSO) wells
[9] = normalized composite Z-score vs mock-treated (DMSO) wells, Conc 20 μM
[10] = 20 μM, composite Z-score vs DMSO
[11] = composite Z-score vs DMSO, Conc 9.58 μM
[12] = composite Z-score vs DMSO, Conc 20 μM
[13] = composite Z-score vs mock-treated (DMSO) wells, concentration of each compound in μM
[14] = composite Z-score vs DMSO wells, Conc 20 μM
[15] = composite Z-score vs mock-treated (DMSO) wells, Conc 20 μM
[16] = composite Z-score vs DMSO, Conc 20.18 μM

Compound: COc1c2c(cc3occ(-c4ccc5c(c4)OCO5)c(=O)c13)OC(C)(C)C=C2 [methyl robustone, reference compound]
- MTT [1, 9]: −0.344
- cyt c [2, 9]: 0.373
- mitoOX [3, 9]: −0.063
- nucOX [4, 9]: 0.075
- ROS [5, 9]: −0.347
- GE-HTS [6, 9]: 0.033
- ΔΨm [7, 9]: 0.715
- Viability [8, 9]: 0.848

Compound: C[C@H]1C[C@@H]2[C@H]([C@@H](O)C[C@@]3(C)[C@H]2CC[C@]3(O)C(=O)CO)[C@@]2(C)C=CC(=O)C=C12 [methylprednisolone]
- MTT [1]: −1.014
- cyt c [2]: −0.102
- mitoOX [3]: −0.270
- nucOX [4]: −0.138
- ROS [5]: 0.133
- GE-HTS [6]: −0.220
- ΔΨm [7]: −0.375
- Viability [8]: −0.631

Compound: Cc1cc(=O)[nH]c(=S)[nH]1 [methylthiouracil]
- MTT [1, 10]: −0.633
- cyt c [2, 10]: 0.846
- mitoOX [3, 10]: −0.302
- nucOX [4, 10]: 0.146
- ROS [5, 10]: 0.815
- GE-HTS [6, 10]: −0.029
- ΔΨm [7, 10]: −0.553
- Viability [8, 10]: −0.235

Compound: CN1CCCC(CC2c3ccccc3Sc3ccccc32)C1 (stereo not shown) [metixene]
- MTT [1]: −0.786
- cyt c [2]: 0.097
- mitoOX [3]: −1.236
- nucOX [4]: −1.058
- ROS [5]: −0.834
- GE-HTS [6]: −1.190
- ΔΨm [7]: −0.713
- Viability [8]: 1.221

Compound: COCCc1ccc(OCC(O)CNC(C)C)cc1 (stereo not shown) [metoprolol, reference compound]
- MTT [1, 11]: −1.894
- MTT [1, 12]: −1.660
- cyt c [2, 11]: 0.496
- cyt c [2, 12]: 0.596
- mitoOX [3, 11]: −0.342
- mitoOX [3, 12]: 0.241
- nucOX [4, 11]: −0.430
- nucOX [4, 12]: 0.546
- ROS [5, 11]: 0.253
- ROS [5, 12]: 0.652
- GE-HTS [6, 11]: −0.423
- GE-HTS [6, 12]: 0.450
- ΔΨm [7, 11]: −0.997
- ΔΨm [7, 12]: −0.515
- Viability [8, 11]: 0.437
- Viability [8, 12]: 0.326

Compound: COc1cc2occ(-c3cc4c(cc3OC)OCO4)c(=O)c2cc1OC [milldurone]
- MTT [1, 13]: −0.713
- cyt c [2, 13]: 0.465
- mitoOX [3, 13]: −0.215
- nucOX [4, 13]: 0.605
- ROS [5, 13]: 0.680
- GE-HTS [6, 13]: 0.343
- ΔΨm [7, 13]: −0.569
- Viability [8, 13]: −0.401

Compound: Clc1ccc(C(c2ccccc2Cl)C(Cl)Cl)cc1 (stereo not shown) [mitotane]
- MTT [1, 10]: −1.708
- cyt c [2, 10]: −0.216
- mitoOX [3, 10]: −0.244
- nucOX [4, 10]: 0.072
- ROS [5, 10]: 0.460
- GE-HTS [6, 10]: −0.030
- ΔΨm [7, 10]: −0.542
- Viability [8, 10]: −1.631

Compound: CCOC(=O)[N-]c1cn(N2CCOCC2)n[o+]1 [molsidomine]
- MTT [1, 14]: −0.651
- cyt c [2]: −0.533
- cyt c [2, 14]: 0.339
- mitoOX [3, 14]: 0.106
- nucOX [4, 14]: 0.331
- ROS [5, 14]: −0.398
- GE-HTS [6, 14]: 0.250
- ΔΨm [7, 14]: −0.537
- Viability [8, 14]: −0.665

Compound: COc1ccc([C@H]2COc3cc(O)ccc3C2)c(OC)c1O [mucronulatol]
- MTT (composite Z-score) ([1]; Conc 20 μM): −0.847
- cyt c (composite Z-score) ([2]; Conc 20 μM): −0.365
- mitoOX (composite Z-score) ([3]; Conc 20 μM): −0.729
- nucOX (composite Z-score) ([4]; Conc 20 μM): −0.104
- ROS (composite Z-score) ([5]; Conc 20 μM): −0.187
- GE-HTS (composite Z-score) ([6]; Conc 20 μM): −0.345
- ΔΨm (composite Z-score) ([7]; Conc 20 μM): 0.006
- Viability (composite Z-score) ([8]; Conc 20 μM): 1.396

Compound: COc1ccc2c(c1)O[C@@H]1COc3cc(OC)c(OC)cc3[C@@H]1C2=O [mundoserone, reference compound]
- MTT [1, 15]: −1.681
- cyt c [2, 15]: 0.418
- mitoOX [3, 15]: −0.452
- nucOX [4, 15]: −0.643
- ROS [5, 15]: −0.608
- GE-HTS [6, 15]: −0.606
- ΔΨm [7, 15]: 0.837
- Viability [8, 15]: −0.425

Compound: COc1c(-c2coc3cc4c(cc3c2=O)CC(O)C(C)(C)O4)ccc2c1C=CC(C)(C)O2 (stereo not shown) [mundulone, reference compound]
- MTT [1, 9]: −2.487
- cyt c [2, 9]: −0.843
- mitoOX [3, 9]: −1.091
- nucOX [4, 9]: −1.888
- ROS [5, 9]: −0.141
- GE-HTS [6, 9]: −1.719
- ΔΨm [7, 9]: 3.037
- Viability [8, 9]: −1.113

Compound: c1cncc(C2=NCCC2)c1 [myosmine]
- MTT (composite Z-score) ([1]; Conc 27.36 μM): −1.423
- cyt c (composite Z-score) ([2]; Conc 27.36 μM): 1.184
- mitoOX (composite Z-score) ([3]; Conc 27.36 μM): −0.195
- nucOX (composite Z-score) ([4]; Conc 27.36 μM): 0.712
- ROS (composite Z-score) ([5]; Conc 27.36 μM): 1.543
- GE-HTS (composite Z-score) ([6]; Conc 27.36 μM): 0.445
- ΔΨm (composite Z-score) ([7]; Conc 27.36 μM): 0.326
- Viability (composite Z-score) ([8]; Conc 27.36 μM): −0.497

Compound: COc1ccc2cc([C@H](C)CO)ccc2c1 [naproxol]
- MTT [1, 12]: −1.522
- cyt c [2, 12]: 0.993
- mitoOX [3, 12]: −0.018
- nucOX [4, 12]: −1.214
- ROS [5, 12]: −0.319
- GE-HTS [6, 12]: −0.895
- ΔΨm [7, 12]: −0.500
- Viability [8, 12]: 0.249

Compound: NC[C@@H]1O[C@H](O[C@H]2[C@@H](O)[C@H](O[C@@H]3[C@@H](O)[C@H](N)C[C@H](N)[C@H]3O[C@H]3O[C@H](CN)[C@@H](O)[C@H](O)[C@H]3N)O[C@@H]2CO)[C@H](N)[C@@H](O)[C@@H]1O [neomycin]
- MTT [1, 12]: −1.478
- cyt c [2, 12]: 0.734
- mitoOX [3, 12]: 1.160
- nucOX [4, 12]: 0.598
- ROS [5, 12]: 1.203
- GE-HTS [6, 12]: 0.817
- ΔΨm [7, 12]: −0.599
- Viability [8, 12]: −1.255

Compound: CC(=O)OC1CCC2(C)C(CCC3C2CCC2(C)C3CC3OC4(CCC(C)CO4)C(C)C32)C1 (stereo not shown) [neotigogenin acetate]
- MTT [1, 9]: −1.611
- cyt c [2, 9]: −0.049
- mitoOX [3, 9]: −0.693
- nucOX [4, 9]: −0.925
- ROS [5, 9]: −0.437
- GE-HTS [6, 9]: −0.890
- ΔΨm [7, 9]: −0.822
- Viability [8, 9]: −0.705

Compound: O=C(Nc1ccc([N+](=O)[O-])cc1Cl)c1cc(Cl)ccc1O [niclosamide]
- MTT [1]: −3.816
- MTT [1, 10]: −0.296
- cyt c [2]: −3.177
- cyt c [2, 10]: −2.947
- mitoOX [3]: −0.755
- mitoOX [3, 10]: −2.299
- nucOX [4]: −1.007
- nucOX [4, 10]: −0.288
- ROS [5]: −3.069
- ROS [5, 10]: −3.862
- GE-HTS [6]: −0.976
- GE-HTS [6, 10]: −1.042
- ΔΨm [7]: −3.700
- ΔΨm [7, 10]: −4.256
- Viability [8]: −1.410
- Viability [8, 10]: −0.944

Compound: CN1CCC[C@H]1c1cccnc1 [nicotine]
- MTT [1]: −1.228
- cyt c [2]: 0.348
- mitoOX [3]: −1.705
- nucOX [4]: −1.032
- ROS [5]: 0.503
- GE-HTS [6]: −1.360
- ΔΨm [7]: −0.423
- Viability [8]: −0.093

Compound: c1ccc2c3c([nH]c2c1)[C@H]1[C@H]2CC[C@H]([C@@H]4CCCN[C@@H]42)N1CC3 [nitrarine]
- MTT [1, 13]: −1.978
- cyt c [2, 13]: 0.040
- mitoOX [3, 13]: −0.378
- nucOX [4, 13]: −0.303
- ROS [5, 13]: 0.458
- GE-HTS [6, 13]: −0.352
- ΔΨm [7, 13]: −0.986
- Viability [8, 13]: −0.068

Compound: NC(=O)N/N=C/c1ccc([N+](=O)[O-])o1 [nitrofural]
- MTT [1, 16]: −0.852
- cyt c [2, 16]: 0.342
- mitoOX [3, 16]: −0.750
- nucOX [4, 16]: −0.010
- ROS [5, 16]: 0.446
- GE-HTS [6, 16]: −0.260
- ΔΨm [7, 16]: −0.518
- Viability [8, 16]: 0.584
